These are literature values, as cited in patent US11865207B2, “Topical pharmaceutical composition for treatment of anal fissures and hemorrhoids” (Ferring B.V., priority 2018, dated 2024).

The series relates to anal fissures. The note with it: 2% topical diltiazem in an ointment.

Turning to `COc1ccc([C@@H]2Sc3ccccc3N(CCN(C)C)C(=O)[C@@H]2OC(C)=O)cc1` [diltiazem], the healing rate is reported as 75%.
